Data on 13 molecules can be found in patent US20240409585A1, “MACROCYCLIC IMMUNOMODULATORS” (priority 2021, published 2024).

For test [1], the target named is T1, Alexa fluor-647 labeled human PD-L1-Ig binding to Jurkat cell line over-expressing human PD-1 (Homo sapiens, UniProt Q15116).
T1 construct: expressed in transfected cells; host or cells: Jurkat
Description: Jurkat-PD-1 Cell Binding High-Content Screening Assay (CBA): Method 3 (Alexa fluor-647 labeled PD-L1-Ig). Conditions: Jurkat-PD-1 cells, Alexa fluor-647 labeled PD-L1-Ig 177 nM; nM; read-out: CBA Method 3. The method, then:
Jurkat-PD-1 Cell Binding High-Content Screening Assay (CBA): Method 3
Alexa fluor-647 was covalently linked to the Ig epitope tag of human PD-L1-Ig and fluorescently labeled PD-L1-Ig was used for the binding studies with a Jurkat cell line over-expressing human PD-1. Briefly, 2.5×10^4 Jurkat-hPD-1 cells were seeded into 384 well plates in 20 μl of RPMI supplemented with 10% fetal calf serum. 12.5 nl of compound was added to cells followed by incubation at 37° C. for 2 hours. Then, 10 ul of Alexa fluor-647 labeled PD-L1-Ig (177 nM final), diluted in RPMI supplemented with 10% fetal calf serum was added to the cells and incubated for 1 hour. Cells were then fixed with 4% paraformaldehyde containing 10 μg/ml Hoechst 33342 and then washed 3× in 100 ul PBS and 100 ul of PBS was added in the final step. Data was collected using the Operetta High Content Imager and the data was analyzed using the columbus software.

Test [2] concerns the target T2, PE-labeled human PD-L1-Ig binding to Jurkat cell line over-expressing human PD-1 (Jurkat-PD-1) (Homo sapiens, UniProt Q15116).
T2 construct: expressed in transfected cells; host or cells: Jurkat
Description: Jurkat-PD-1 Cell Binding High-Content Screening Assay (CBA): Method 1.

[3] abbreviates: Jurkat-hPD-1 cells, PE-labeled PD-L1-Ig 20 nM final, read-out: Jurkat HPDL1 PD1 IC50 (uM) (Method 1).

The structures appear in SMILES notation. Like-named read-outs stand apart in the source and are kept apart here. Bridge positions count the residues as written; N and C are the ends. Square brackets hold non-standard residues; d marks the D form. Peptide text beside a SMILES is read from it. * marks the point of attachment. ξ: configuration not given here. Phe(4-COOH) = N[C@@H](Cc1ccc(C(=O)O)cc1)C(=O)O; Bip = N[C@@H](Cc1ccc(-c2ccccc2)cc1)C(=O)O; Phe(3-OMe) = COc1cccc(C[C@H](N)C(=O)O)c1; Phe(3-Me) = Cc1cccc(C[C@H](N)C(=O)O)c1; 4Pal = N[C@@H](Cc1ccncc1)C(=O)O; Cha = N[C@@H](CC1CCCCC1)C(=O)O; Ile(3ξ) = CCC(C)[C@H](N)C(=O)O; Thr(3ξ) = CC(O)[C@H](N)C(=O)O; ξCha = NC(CC1CCCCC1)C(=O)O; Pip = O=C(O)[C@@H]1CCCCN1; Carboxymethyl = O=C(O)C*; NMeA = CN[C@@H](C)C(=O)O; Orn = NCCC[C@H](N)C(=O)O; Dab = NCC[C@H](N)C(=O)O; Dap = NC[C@H](N)C(=O)O; ξC = NC(CS)C(=O)O; Acm = CC(=O)NC*

T2 sequence (Q15116 25-288): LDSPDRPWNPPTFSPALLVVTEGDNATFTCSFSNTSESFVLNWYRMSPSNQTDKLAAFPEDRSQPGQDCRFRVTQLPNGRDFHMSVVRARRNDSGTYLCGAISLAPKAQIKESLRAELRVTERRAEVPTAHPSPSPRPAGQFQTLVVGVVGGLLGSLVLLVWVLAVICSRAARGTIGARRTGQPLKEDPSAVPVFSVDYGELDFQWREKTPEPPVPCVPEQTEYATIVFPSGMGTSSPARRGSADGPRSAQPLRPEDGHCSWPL
T1 sequence (Q15116 25-288): as above

In the case of `Cc1cccc(C[C@@H]2NC(=O)[C@H](CC(=O)O)NC(=O)[C@H](Cc3ccc(OCC(=O)O)cc3)NC(=O)[C@H](CCCNC(=N)N)NC(=O)CSC[C@@H](C(=O)N[C@@H](CCN)C(N)=O)NC(=O)[C@H](CCCN)NC(=O)[C@H](C(C)C)NC(=O)[C@H](CC3CCCCC3)NC(=O)[C@H](CCN)NC(=O)[C@@H](CC(C)C)NC(=O)[C@H](C)N(C)C(=O)[C@H](CCC(N)=O)NC(=O)[C@H](Cc3ccc(-c4ccccc4)cc3)NC(=O)[C@H](Cc3ccc(C(=O)O)cc3)NC2=O)c1` [Example 5183] ({CH2CO}-RY(Carboxymethyl)D[Phe(3-Me)][Phe(4-COOH)][Bip]Q[NMeA][dL][Dab][Cha]V[Orn]C[Dab]-NH2; thioether N-14), in test [1], the IC50 amounted to 2.3 nM.
For the molecule `CCC(C)[C@@H]1NC(=O)[C@H](Cc2ccc(-c3ccccc3)cc2)NC(=O)[C@H](C(C)C)NC(=O)[C@H](Cc2c[nH]c3ccccc23)NC(=O)[C@H](CC(=O)O)NC(=O)[C@H](Cc2ccc(OCC(=O)O)cc2)NC(=O)[C@H](C(C)O)NC(=O)CSC[C@@H](C(=O)N[C@@H](CO)C(=O)NCC(=O)N[C@@H](CO)C(N)=O)NC(=O)[C@H](C(C)O)NC(=O)[C@H](C(C)C)NC(=O)C(CC2CCCCC2)NC(=O)[C@H](CCN)NC(=O)[C@@H](CC(C)C)NC(=O)[C@H](C)N(C)C1=O` (stereo partly drawn) [Example 5003] ({CH2CO}-[Thr(3ξ)]Y(Carboxymethyl)DWV[Bip][Ile(3ξ)][NMeA][dL][Dab][ξCha]V[Thr(3ξ)]CSGS-NH2; thioether N-14), the IC50 in test [2] (Jurkat-PD-1 cells, PE-labeled PD-L1-Ig, μM, read-out: CBA Method 1 μM) amounted to 0.03 µM.
On to `CC(C)C[C@@H]1NC(=O)[C@H](Cc2c[nH]c3ccccc23)NC(=O)[C@H](CC(=O)O)NC(=O)[C@H](Cc2ccc(O)cc2)NC(=O)[C@H](Cc2ccccc2)NC(=O)CSC[C@@H](C(=O)N[C@@H](C)C(N)=O)NC(=O)[C@H](CO)NC(=O)[C@H](C(C)C)NC(=O)[C@H](CC(C)C)NC(=O)[C@H](CC(N)=O)NC(=O)[C@@H](CCC(=O)O)NC(=O)[C@H](C)N(C)C(=O)[C@H](C(C)C)NC(=O)[C@H](Cc2ccc(-c3ccccc3)cc2)NC1=O` [Compound 1820] ({CH2CO}-FYDWL[Bip]V[NMeA][dE]NLVSCA-NH2; thioether N-14), for which, in test [2] (setting [3]), the IC50 stood at 0.48 µM.
`CC(C)C[C@@H]1NC(=O)[C@H](CCCCN)NC(=O)[C@@H](CC(C)C)NC(=O)[C@H](C)N(C)C(=O)[C@H](CCCNC(=N)N)NC(=O)[C@H](Cc2ccc(-c3ccccc3)cc2)NC(=O)[C@H](C(C)C)NC(=O)[C@H](Cc2c[nH]c3ccccc23)NC(=O)[C@H](CC(=O)O)NC(=O)[C@H](Cc2ccc(O)cc2)NC(=O)[C@H](CC(N)=O)NC(=O)CSC[C@@H](C(=O)N[C@@H](C)C(N)=O)NC(=O)[C@H]([C@@H](C)O)NC(=O)[C@H](C(C)C)NC1=O` [Compound 1269] ({CH2CO}-NYDWV[Bip]R[NMeA][dL]KLVTCA-NH2; thioether N-14): the IC50 in test [2] (setting [3]) was 0.03 µM.
Same read-out and setting: as for `COc1cccc(C[C@@H]2NC(=O)[C@H](Cc3ccccc3)NC(=O)CSC[C@@H](C(=O)N[C@@H](C)C(N)=O)NC(=O)[C@H](CO)NC(=O)[C@H](C(C)C)NC(=O)[C@H](CC(C)C)NC(=O)[C@H](CC(N)=O)NC(=O)[C@@H](C)NC(=O)[C@H](C)N(C)C(=O)[C@H](C(C)C)NC(=O)[C@H](Cc3ccc(-c4ccccc4)cc3)NC(=O)[C@H](CC(C)C)NC(=O)[C@H](Cc3c[nH]c4ccccc34)NC(=O)[C@H](CC(=O)O)NC2=O)c1` [Compound 1732] ({CH2CO}-F[Phe(3-OMe)]DWL[Bip]V[NMeA][dA]NLVSCA-NH2; thioether N-14), the figure is 0.01 µM; as for `CC(C)C[C@@H]1NC(=O)[C@H](CCCNC(=N)N)NC(=O)[C@@H](Cc2ccccc2)NC(=O)[C@H](C)N(C)C(=O)[C@H](CCCNC(=N)N)NC(=O)[C@H](Cc2ccc(-c3ccccc3)cc2)NC(=O)[C@H](C(C)C)NC(=O)[C@H](Cc2c[nH]c3ccccc23)NC(=O)[C@H](CC(=O)O)NC(=O)[C@H](Cc2ccc(O)cc2)NC(=O)[C@H](Cc2cnc[nH]2)NC(=O)CSC[C@@H](C(=O)NCC(N)=O)NC(=O)[C@H](CO)NC(=O)[C@H](C(C)C)NC1=O` [Compound 1031] ({CH2CO}-HYDWV[Bip]R[NMeA][dF]RLVSCG-NH2; thioether N-14), 0.09 µM; as for `CC[C@H](C)[C@@H]1NC(=O)[C@H](Cc2ccc(-c3ccccc3)cc2)NC(=O)[C@H](CC(C)C)NC(=O)[C@H](Cc2c[nH]c3ccccc23)NC(=O)[C@H](CC(=O)O)NC(=O)[C@H](Cc2ccc(OCC(=O)O)cc2)NC(=O)[C@H](Cc2ccccc2)NC(=O)CSC[C@@H](C(N)=O)NC(=O)[C@H](CO)NC(=O)[C@H](C(C)C)NC(=O)[C@H](CC(C)C)NC(=O)[C@H](CC(N)=O)NC(=O)[C@@H](CC(C)C)NC(=O)[C@H](C)N(C)C1=O` [Compound 1629] ({CH2CO}-FY(Carboxymethyl)DWL[Bip]I[NMeA][dL]NLVSC-NH2; thioether N-14), 0.05 µM.
On the same count and under the same terms, as for `CC(=O)NCSC[C@@H]1NC(=O)[C@H](Cc2cccc(C)c2)NC(=O)[C@H](CC(=O)O)NC(=O)[C@H](Cc2ccncc2)NC(=O)[C@H](Cc2ccc(OCC(=O)O)cc2)NC(=O)CSCC(C(=O)NCC(N)=O)NC(=O)[C@H](CO)NC(=O)[C@H](C(C)C)NC(=O)[C@H](CC(C)C)NC(=O)[C@H](CC(N)=O)NC(=O)[C@@H](CC(C)C)NC(=O)[C@H](C)N(C)C(=O)[C@H](CSCNC(C)=O)NC(=O)[C@H](Cc2ccc(-c3ccccc3)cc2)NC1=O` (stereo partly drawn) [Compound 1888] ({CH2CO}-Y(Carboxymethyl)[4Pal]D[Phe(3-Me)]C(Acm)[Bip]C(Acm)[NMeA][dL]NLVS[ξC]G-NH2; thioether N-14), the figure is 0.2 µM; as for `CCC(C)[C@@H]1NC(=O)[C@H](Cc2ccc(-c3ccccc3)cc2)NC(=O)[C@H](CC(C)C)NC(=O)[C@H](Cc2c[nH]c3ccccc23)NC(=O)[C@H](CC(=O)O)NC(=O)[C@H](Cc2ccc(C(=O)O)cc2)NC(=O)[C@H](Cc2ccc(OCC(=O)O)cc2)NC(=O)CSC[C@@H](C(=O)N[C@@H](CC(N)=O)C(N)=O)NC(=O)[C@H](CCC(=O)O)NC(=O)[C@H](C(C)C)NC(=O)[C@H](CC2CCCCC2)NC(=O)[C@H](CCN)NC(=O)[C@@H](CC(C)C)NC(=O)[C@H](C)N(C)C1=O` (stereo partly drawn) [Compound 1924] ({CH2CO}-Y(Carboxymethyl)[Phe(4-COOH)]DWL[Bip][Ile(3ξ)][NMeA][dL][Dab][Cha]VECN-NH2; thioether N-14), 0.04 µM.
For `Cc1cccc(C[C@@H]2NC(=O)[C@H](CC(=O)O)NC(=O)[C@H](Cc3ccc(OCC(=O)O)cc3)NC(=O)[C@H](CN)NC(=O)CSC[C@@H](C(=O)N[C@@H](C)C(N)=O)NC(=O)[C@H]([C@@H](C)O)NC(=O)[C@H](C(C)C)NC(=O)[C@H](CC(C)C)NC(=O)[C@H](CCN)NC(=O)[C@@H](CC(C)C)NC(=O)[C@H](C)N(C)C(=O)[C@H](C(C)C)NC(=O)[C@H](Cc3ccc(-c4ccccc4)cc3)NC(=O)[C@H](C(C)C)NC2=O)c1` [Compound 1418] ({CH2CO}-[Dap]Y(Carboxymethyl)D[Phe(3-Me)]V[Bip]V[NMeA][dL][Dab]LVTCA-NH2; thioether N-14), in test [2] (setting [3]), the IC50 worked out at 0.01 µM.
Still for that read-out and setting: as for `CC(C)C[C@@H]1NC(=O)[C@H](Cc2c[nH]c3ccccc23)NC(=O)[C@H](CC(=O)O)NC(=O)[C@H](Cc2ccc(C(=O)O)cc2)NC(=O)[C@H](Cc2ccc(OCC(=O)O)cc2)NC(=O)CSC[C@@H](C(N)=O)NC(=O)[C@H](CCCCN)NC(=O)[C@H](C(C)C)NC(=O)[C@H](CC(C)C)NC(=O)[C@H](CC(N)=O)NC(=O)[C@@H](CC(C)C)NC(=O)[C@H](C)N(C)C(=O)[C@H](C(C)C)NC(=O)[C@H](Cc2ccc(-c3ccccc3)cc2)NC1=O` [Compound 2258] ({CH2CO}-Y(Carboxymethyl)[Phe(4-COOH)]DWL[Bip]V[NMeA][dL]NLVKC-NH2; thioether N-14), the figure is 0.16 µM.
The same measure, in the same setting: as for `CC(C)C[C@@H]1NC(=O)[C@H](CCN)NC(=O)[C@@H](CC(C)C)NC(=O)[C@@H]2CCCCN2C(=O)[C@H](C(C)C)NC(=O)[C@H](Cc2ccc(-c3ccccc3)cc2)NC(=O)[C@H](C(C)C)NC(=O)[C@H](Cc2c[nH]c3ccccc23)NC(=O)[C@H](CC(=O)O)NC(=O)[C@H](Cc2ccc(O)cc2)NC(=O)[C@H](CC(N)=O)NC(=O)CSC[C@@H](C(=O)N[C@@H](C)C(N)=O)NC(=O)[C@H]([C@@H](C)O)NC(=O)[C@H](C(C)C)NC1=O` [Compound 1298] ({CH2CO}-NYDWV[Bip]V[Pip][dL][Dab]LVTCA-NH2; thioether N-14), the figure is 0.03 µM.
In the case of `CC(C)C[C@@H]1NC(=O)[C@H](CCN)NC(=O)[C@@H](CC(C)C)NC(=O)[C@H](C)N(C)C(=O)[C@H](CC(C)C)NC(=O)[C@H](Cc2ccc(-c3ccccc3)cc2)NC(=O)[C@H](C(C)C)NC(=O)[C@H](Cc2c[nH]c3ccccc23)NC(=O)[C@H](CC(=O)O)NC(=O)[C@H](Cc2ccc(O)cc2)NC(=O)[C@H](CC(N)=O)NC(=O)CSC[C@@H](C(=O)N[C@@H](C)C(N)=O)NC(=O)[C@H]([C@@H](C)O)NC(=O)[C@H](C(C)C)NC1=O` [Compound 1270] ({CH2CO}-NYDWV[Bip]L[NMeA][dL][Dab]LVTCA-NH2; thioether N-14), the IC50 in test [2] (setting [3]) is 0.11 µM.
